For data set [1] the following is noted: cited from earlier work.
Another data set deals with SNC. The data set is described as follows: Essential activity on the CNS (Tableau I and conclusions of the neuropsychopharmacological study). It counts as in vivo. The note with it: in vivo. The text has this: Dans le tableau I ci-après, on a consigné un certain nombre de composés selon la formule I de façon nullement limitative, en mentionnant l'activité essentielle sur le SNC.
Les composés de formule I agissent tous sur le SNC. Les produits des exemples 1-3 et 7-8 sont des agents stimulants, en revanche les produits des exemples 4-6 sont des agents sédatifs.

For data set [2], the system named is souris mâle. The data set is described as follows: Pentobarbital-induced sleep duration. It counts as in vivo. The text has this: Les composés selon l'invention se distinguent du benzhydrylsulfinylacétamide (CRL 40476) précité par une différence d'action vis-à-vis du sommeil barbiturique. […]. Cette différence d'action qui est intéressante sur le plan thérapeutique est illustrée par le tableau IV

A short description of another data set: Solubility. The note with it: for solubility: water.
The subject of a further data set is rats. The data set is described as follows: Interaction with amphetamine (stereotypies). It counts as in vivo. The note with it: rat; amphétamine 2 mg/kg i.p.; doses used, not stated. The procedure:
(§1) On a résumé ci-après les résultats des essais pharmacologiques qui ont été entrepris avec les produits selon la présente addition. Dans ces essais, les produits de formule I à étudier ont été administrés par voie intrapéritonéale, en suspension dans une solution aqueuse de gomme arabique, sous un volume de 20 ml/kg chez la souris mâle et sous un volume de 5 ml/kg chez le rat mâle.
L'amphétamine (2 mg/kg)est injectée par voie intrapéritonéale à des lots de 6 rats, 30 min après l'administration de CRL 40933.

Another data set deals with rats mâles. As to the kind of experiment: Global behaviour and reactivities, rat. It counts as in vivo. The note with it: 64 mg/kg i.p. The procedure:
as §1
(§2) Pour apprécier le comportement global et les réactivités, des lots de six animaux (souris mâles ou rats mâles) ont été observés avant administration de chaque produit, puis 15 min, 30 min, 1 h, 2 h, 3 h et 24 h après administration de chaque produit. Les résultats sont consignés dans le tableau III ci-après, […]

Data set [3] deals with souris. The data set is described as follows: Interaction with oxotremorine. It counts as in vivo. Here is the method:
as §1
Le CRL 40933 est administré à des lots de 6 souris 0,5 h avant l'injection intrapéritonéale de 0,5 mg/kg d'oxotrémorine.

The test system of data set [4] is souris. The data set is described as follows: Interaction with apomorphine, mouse. It counts as in vivo. The procedure: as §1
Des lots de 6 souris par dose reçoivent le CRL 40933 0,5 h avant l'injection sous-cutanée d'apomorphine administrée à la dose de 1 ou 16 mg/kg.

The test system of data set [5] is souris. The data set is described as follows: Behavioural despair (forced immersion). It counts as in vivo. As to conditions: 32 mg/kg et 128 mg/kg i.p. Here is the method:
as §1
Une demi-heure après avoir reçu le CRL 40933, des lots de 10 souris par dose sont placés dans un espace restreint rempli d'eau sur une hauteur de 6 cm; on note la durée d'immobilité entre la 2e et la 6e minute suivant l'immersion.

The test system of data set [6] is souris. As to the kind of experiment: Traction test. It counts as in vivo. As to conditions: 0,5 h after administration, dose not stated. The procedure:
as §1
(§3) Les essais sont effectués sur des lots de 10 souris (par dose) 0,5 h après l'administration du CRL 40933.

The subject of data set [7] is souris mâle. As to the kind of experiment: Toxicity, DL-0. It counts as in vivo. The note with it: i.p. The procedure:
as §1
La toxicité a été étudiée chez la souris mâle. Les résultats relatifs à la DL-0 (dose minimale non mortelle) sont donnés dans le tableau II ci-après.

For data set [8], the system named is souris. As to the kind of experiment: Four plates test. It counts as in vivo. As to conditions: 0,5 h after administration, dose not stated. Here is the method:
as §1, §3

Data set [9] has as its system souris. As to the kind of experiment: Interaction with reserpine. It counts as in vivo. As to conditions: 128 mg/kg i.p. The procedure:
as §1
Quatre heures après l'injection intrapéritonéale de 2,5 mg/kg de réserpine, des lots de 6 souris reçoivent le CRL 40933.

For data set [10], the system named is souris. The data set is described as follows: Motility reduced by hypoxic aggression (acute hypobaric anoxia). It counts as in vivo. Here is the method:
as §1
Une demi-heure après avoir reçu le CRL 40933, les souris (10 par dose, 20 témoins) sont soumises à une anoxie hypobare aiguë [dépression de 600 mm Hg (soit environ 8 x 10^4 pascals) en 90 s, puis détente de 45 s], puis elles sont placées en actimètre où leur motilité est enregistrée pendant 10 min.

The test system of data set [11] is souris. The data set is described as follows: Intergroup aggressiveness. It counts as in vivo. As to conditions: for agressivité intergroupes (nombre de combats): dose not stated. The procedure:
as §1
Après avoir séjourné pendant 3 semaines dans chacune des moitiés d'une cage séparées par une cloison opaque, des groupes de 3 souris reçoivent le CRL 40933. 30 min plus tard, les deux groupes d'une même cage sont réunis par retrait de la cloison et on note le nombre de combats qui surviennent en 10 min.

In data set [12] the test system is souris. As to the kind of experiment: Motility reduced by habituation to the enclosure. It counts as in vivo. The procedure: as §1
Après 18 h de séjour dans les actimètres, les souris (6 par dose, 12 témoins) reçoivent le CRL 40933. Elles sont aussitôt replacées dans leurs enceintes respectives et, 30 min plus tard, on enregistre leur motilité pendant 30 min.

The test system of data set [13] is souris. As to the kind of experiment: Interaction with barbital (sleep). It counts as in vivo. Here is the method:
as §1
Une demi-heure après l'administration de CRL 40933, des lots de 10 souris reçoivent une injection intrapéritonéale de 220 mg/kg de barbital.

Data set [14] deals with souris. As to the kind of experiment: Electroshock. It counts as in vivo. As to conditions: dose not stated. The procedure:
as §1, §3

Data set [15] relates to souris. As to the kind of experiment: Asphyxic anoxia (gallamine triethiodide). It counts as in vivo. As to conditions: dose not stated. Here is the method: as §1
Des lots de 10 souris par dose reçoivent le CRL 40933 30 min avant l'administration intrapéritonéale de 32 mg/kg de triiodoéthylate de gallamine.

In data set [16] the test system is souris. The data set is described as follows: Spontaneous motility (actimeter). It counts as in vivo. The procedure:
as §1
Une demi-heure, après avoir reçu le CRL 40933, les souris (6 par dose, 12 témoins) sont placées en actimètre où leur motilité est enregistrée pendant 30 min.

Another data set relates to souris mâles. As to the kind of experiment: Global behaviour and reactivities, mouse. It counts as in vivo. As to conditions: souris. The procedure:
as §1, §2

The test system of the next data set is rat. The data set is described as follows: Interaction with apomorphine, rat. It counts as in vivo. The note with it: apomorphine 0,5 mg/kg s.c., dose not stated. The procedure:
as §1
Le CRL 40933 est administré à des lots de 6 rats 0,5 h avant l'injection sous-cutanée de 0,5 mg/kg d'apomorphine.

The mark [17] stands for this setting: dose 128 mg/kg i.p., 0,5 h before pentobarbital.

On to `NC(=O)C[S+]([O-])C(c1ccccc1)c1ccccc1` (stereo not drawn) [CRL 40476, benzhydrylsulfinylacétamide, reference compound], for which, in data set [1] (in vivo), the “excitation avec hyperréactivité” value is listed as “présence” and the “potentialisation des effets de l'apomorphine et de l'amphétamine” value is “absence”. Moreover, the stéréotypies result in data set [1] (sauf à fortes doses) is “absence”. Moreover, the “Activité sur le SNC” value in the data set on SNC is “stimulant”. Further, the “Action sur la durée du sommeil induit par le pentobarbital (50 mg/kg i.p.) effet” value in the data set on souris mâle [2] (dose de 8 à 256 mg/kg i.p., 0,5 h before pentobarbital) is “(b) (pas de modification significative de la durée du sommeil.)”. For the same compound, in the data set on souris mâle [2] (pentobarbital 50 mg/kg i.p. 0,5 h after i.p. test product, dose not stated), the “durée du sommeil barbiturique induit par le pentobarbital” value was “ne modifie pas”.
The term solubility denotes how much of the substance goes into solution per volume. A low value points to little dissolved substance. Regarding `CNC(=O)C[S+]([O-])C(c1ccccc1)c1ccccc1` (stereo not drawn) [Exemple 1, N-méthyl-benzhydrylsulfinylacétamide], in “Solubility”, the “solubilité dans l'éther et l'acétate d'éthyle” value is listed as “insoluble”; the “solubilité dans le méthanol, l'éthanol et l'acétoné” value is “soluble”; the solubility is below 1000 µg/mL. Besides, the “stéréotypies amphétaminiques” value with rats is recorded as “ne modifie pratiquement pas”. For the same compound, in the data set on rats mâles, the “Observations (comportement global et réactivités)” value (“Observations” below) is given as “mydriase pendant 3 h”. The “action hypothermisante de l'oxotrémorine” value in the data set on souris [3] (8 mg/kg à 128 mg/kg i.p.) is given as “s'oppose modérément”. In the data set on souris [3] (dose not stated), the “signes de stimulation cholinergique périphérique dus à l'oxotrémorine” value was “laisse pratiquement inchangés” and the “tremblements induits par l'oxotrémorine” value is “ne modifie pas”. For the same compound, in the data set on souris [4] (128 mg/kg i.p.), the “hypothermie induite par l'apomorphine” value is “ne s'oppose pas” and the “own effect on temperature” value was “hypothermisant”. Also, in the data set with souris [4] (dose not stated), the “comportement de verticalisation et stéréotypies (apomorphine)” value is on record as “ne modifie pas”. In addition, the “durée d'immobilité de la souris placée en immersion forcée” value with souris [5] was “diminue nettement”. Also, in the data set with souris [6], the “déficit moteur (traction)” value is “ne provoque pas d'incapacité motrice majeure”. In the data set with souris mâle [7], the DL-O result is on record as “supérieure à 256 mg/kg”. Besides, in the data set with souris [8], the “nombre de passages punis” value was “n'entraîne pas d'augmentation”. In addition, in the data set with SNC, the “Activité sur le SNC” value was “stimulant” and the “conclusion of the neuropsychopharmacological study: main type of CNS effect” value is recorded as “composante excitante”. Also, in the data set on souris [9], the “hypothermie induite par la réserpine” value was “antagonise” and the “ptôsis réserpinique” value is on record as “sans modifier”. The “récupération motrice après séjour bref dans une enceinte à pression réduite” value in the data set on souris [10] (128 mg/kg i.p.) was “amélioration modérée (mais non significative)”. The “agressivité intergroupes (nombre de combats)” value in the data set on souris [11] is given as “ne modifie pas nettement”. The “activité motrice chez la souris habituée à son enceinte” value with souris [12] (8 mg/kg, 32 mg/kg et surtout 128 mg/kg i.p.) is “reprise d'activité motrice”. For the same compound, in the data set on souris [13] (32 mg/kg i.p.), the “durée du sommeil barbiturique” value is “n'entraîne pas de modifications sensibles” and the “nombre de souris endormies” value is given as “diminution nette”. Also, the “durée du sommeil barbiturique” value in the data set with souris [13] (128 mg/kg i.p.) is recorded as “diminue nettement”. The “effets convulsivants de l'électrochoc” value with souris [14] is listed as “ne s'oppose pas”. In the data set on souris [15], the “délai d'apparition des convulsions et de la mort consécutives à une anoxie asphyxique” value is given as “ne modifie pas”. For the same compound, the “motilité spontanée” value in the data set on souris [16] (32 mg/kg et 128 mg/kg i.p.) is recorded as “augmentation modérée”. For the same compound, the “Action sur la durée du sommeil induit par le pentobarbital (50 mg/kg i.p.) effet” value in the data set with souris mâle [2] (setting [17]) was “(a)”. Also, in the data set on souris mâles (64 mg/kg i.p.), the “Observations” value is recorded as “excitation”. Besides, in the data set on souris mâles (128 mg/kg i.p.), the “Observations” value was “excitation - hypothermie (-1,5°C) pendant 0,5 h” and the hypothermie is -1,5 °C. Further, in the data set with souris mâles (256 mg/kg i.p.), the “Observations” value is on record as “dyspnée, excitation, démarche titu-bante” and the mortalité entry is listed as “pas de mortalité”. Moreover, in the data set on rat, the “stéréotypies induites par l'apomorphine” value was “laisse inchangées”.
The compound `O=C(C[S+]([O-])C(c1ccccc1)c1ccccc1)N1CCCCC1` (stereo not drawn) [Exemple 5, N-(benzhydrylsulfinylacétyl)-pipéridine] returned a solubility in the data set “Solubility” below 1000 µg/mL. Besides, the DL-O result in the data set with souris mâle [7] is “supérieure à 1024 mg/kg”. Further, in the data set with SNC, the “Activité sur le SNC” value is given as “sédatif” and the “conclusion of the neuropsychopharmacological study: main type of CNS effect” value is “type sédatif”. Moreover, the “mobilité réduite (agression hypoxique)” value in the data set with souris [10] (dose not stated) is “n'agit pas nettement”. The agressivité intergroupes entry in the data set with souris [11] (32 mg/kg i.p.) is “diminue de moitié”. In addition, in the data set with souris [11], the “agressivité intergroupes (nombre de combats)” value is given as “effet antiagressif”. For the same compound, the “mobilité réduite (habituation à l'enceinte)” value in the data set on souris [12] (souris, dose not stated) was “n'agit pas nettement”. Moreover, the “motilité spontanée” value in the data set on souris [16] (all doses used (8 mg/kg à 256 mg/kg), intensity increasing with dose) is listed as “hypomotilité”. For the same compound, in the data set with souris mâle [2] (setting [17]), the “Action sur la durée du sommeil induit par le pentobarbital (50 mg/kg i.p.) effet” value was “(a)”.

The values above are taken from patent EP0097071A1, “Benzhydryl sulfinylacetamide derivatives and their therapeutical use” (LABORATOIRE L. LAFON Société anonyme dite:, priority 1982, dated 1983).
